Structures can show the parent of a compound that is named as a salt. Where two headings read alike, the source gives them in different places.
Assays:
[1] = tested on: P4R5 cells; test: Cytotoxicity in cell-based MAGI assay; conditions: human
[2] = target: HIV RT polymerase (pol) (Human immunodeficiency virus type 1 group M subtype B, UniProt P03366); test: RT polymerase assay; format: biochemical, HIV-1
[3] = target: HIV integrase (Human immunodeficiency virus type 1 group M subtype B, UniProt P03366); test: HIV IN assay; format: biochemical
[4] = target: HIV RT-associated RNase H (Human immunodeficiency virus type 1 group M subtype B, UniProt P03366); test: RNH assay: HIV RT-associated RNase H inhibition, HTS-1 RNA/DNA substrate; format: biochemical, HIV-1
[5] = Cytotoxicity in cell-based MAGI assay; conditions: human, P4R5 indicator cells (MAGI assay)
[6] = tested on: HIV-1; test: MAGI antiviral assay in P4R5 indicator cells; format: cell-based; conditions: Human immunodeficiency virus 1, read-out: MAGI Antiviral EC50
[7] = read-out: RT IC50 Pol, concentration inhibiting the target enzyme by 50%
[8] = concentration inhibiting the target enzyme by 50%

Row | Molecule | IC50 [2] | IC50 [4] | also measured
1 | 3-Hydroxy-1,5,6,7-tetrahydro-2H-cyclopenta[4, 5]thieno[2,3-d]pyrimidine-2,4(3H)-dione [Compound 11i] |  |  | CC50 [1]: > 100 µM; IC50 [2, 7]: > 10 µM
2 | 3-Hydroxy-5,6,7,8-tetrahydrobenzo[4, 5]thieno[2,3-d]pyrimidine-2,4(1H,3H)-dione [Compound 11j] |  |  | CC50 [1]: > 100 µM; IC50 [2, 7]: > 10 µM
3 | O=c1[nH]c2cc(-c3ccccc3)ccc2c(=O)n1O [Compound 9a, 3-Hydroxy-7-phenylquinazoline-2,4(1H,3H)-dione] | > 10 µM |  | fold decrease in INST inhibition ([3]; vs. compound 14): 5.5 fold; fold increase in RNase H inhibition ([4]; vs. compound 14): 6.5 fold
4 | O=c1[nH]c2cc(-c3ccc(Cl)cc3)ccc2c(=O)n1O [Compound 9b, 7-(4-Chlorophenyl)-3-hydroxyquinazoline-2,4(1H,3H)-dione] | > 10 µM |  | 
5 | O=c1[nH]c2cc(-c3ccccc3)sc2c(=O)n1O [Compound 10a, 3-Hydroxy-6-phenylthieno [3,2-d]pyrimidine-2,4(1H,3H)-dione] | > 10 µM | 0.1 ± 0.06 µM | RT IC50 Pol [2, 8]: no RT pol inhibition
6 | O=c1[nH]c2cc(-c3ccc(F)cc3)sc2c(=O)n1O [Compound 10b, 6-(4-Fluorophenyl)-3-hydroxythieno[3,2-d]pyrimidine-2,4(1H,3H)-dione] | > 10 µM |  | 
7 | O=c1[nH]c2cc(-c3ccc(Cl)cc3)sc2c(=O)n1O [Compound 10c, 6-(4-Chlorophenyl)-3-hydroxythieno[3,2-d]pyrimidine-2,4(1H,3H)-dione] | > 10 µM |  | 
8 | O=c1[nH]c2sc(-c3ccccc3)cc2c(=O)n1O [Compound 11a, 3-Hydroxy-6-phenylthieno[2,3-d]pyrimidine-2,4(1H,3H)-dione] | > 10 µM |  | 
9 | O=c1[nH]c2sc(Cc3ccccc3)cc2c(=O)n1O [Compound 11b, 6-Benzyl-3-hydroxythieno[2,3-d]pyrimidine-2,4(1H,3H)-dione] | > 10 µM |  | 
10 | O=c1[nH]c2scc(-c3ccccc3)c2c(=O)n1O [Compound 11c, 3-Hydroxy-5-phenylthieno[2,3-d]pyrimidine-2,4(1H,3H)-dione] | > 10 µM | 0.1 ± 0.03 µM | 
11 | O=c1[nH]c2scc(-c3ccc(Cl)cc3)c2c(=O)n1O [Compound 11d, 5-(4-Chlorophenyl)-3-hydroxythieno[2,3-d]pyrimidine-2,4(1H,3H)-dione] | > 10 µM |  | RT IC50 Pol [2, 8]: did not inhibit RT polymerase
12 | O=c1[nH]c2sccc2c(=O)n1O [Compound 11e, 3-Hydroxythieno[2,3-d]pyrimidine-2,4(1H,3H)-dione] | > 10 µM |  | 
13 | Cc1csc2[nH]c(=O)n(O)c(=O)c12 [Compound 11f, 3-Hydroxy-5-methylthieno[2,3-d]pyrimidine-2,4(1H,3H)-dione] | > 10 µM | 0.1 ± 0.02 µM | 
14 | Cc1sc2[nH]c(=O)n(O)c(=O)c2c1C [Compound 11g, 3-Hydroxy-5,6-dimethylthieno[2,3-d]pyrimidine-2,4(1H,3H)-dione] | > 10 µM | 0.1 ± 0.03 µM | 
15 | Cc1c(C(=O)O)sc2[nH]c(=O)n(O)c(=O)c12 [Compound 11h, 3-Hydroxy-5-methyl-2,4-dioxo-1,2,3,4-tetrahydrothieno[2,3-d]pyrimidine-6-carboxylic acid] | > 10 µM | 0.1 ± 0.02 µM | 
16 | CCN1CCc2c(sc3[nH]c(=O)n(O)c(=O)c23)C1 [Compound 11k, 7-Ethyl-3-hydroxy-5,6,7,8-tetrahydropyrido[4′,3′:4,5]thieno[2,3-d]pyrimidine-2,4(1H,3H)-dione hydrochloride] | > 10 µM | 0.2 ± 0.03 µM | CC50 at 72 h [5]: > 100 µM; IC50 [3]: > 100 µM; EC50 [6]: > 20 µM
17 | O=c1[nH]c2sc3c(c2c(=O)n1O)CCNC3 [Compound 11l, 3-Hydroxy-5,6,7,8-tetrahydropyrido[4′,3′:4,5]thieno[2,3-d]pyrimidine-2,4(1H,3H)-dione hydrobromide] | > 10 µM | 0.3 ± 0.03 µM | CC50 at 72 h [5]: > 100 µM; IC50 [3]: 17 ± 3 µM; EC50 [6]: > 20 µM
18 | O=c1[nH]c2sc3c(c2c(=O)n1O)CCN(Cc1ccccc1)C3 [Compound 11m, 7-Benzyl-3-hydroxy-5,6,7,8-tetrahydropyrido[4′,3′:4,5]thieno[2,3-d]pyrimidine-2,4(1H,3H)-dione hydrochloride] | > 10 µM | 0.1 ± 0.04 µM | CC50 at 72 h [5]: > 100 µM; IC50 [3]: 8.3 ± 0.8 µM; EC50 [6]: > 20 µM
19 | O=C1Cc2cc(-c3ccccc3)ccc2C(=O)N1O [Compound 14, 2-Hydroxy-6-phenylisoquinoline-1,3(2H,4H)-dione] | > 10 µM |  | RT IC50 Pol [2, 8]: without inhibiting RT pol
